Test results from US10160705B2, “Class of HDAC inhibitors expands the renal progenitor cells population and improves the rate of recovery from acute kidney injury” (University of Pittsburgh—Of the Commonwealth System of …, priority 2011, dated 2018).
Like-named read-outs stand apart in the source and are kept apart here.

Legend:
histone H4 = assay: Histone H4 hyperacetylation Western blot in treated embryos; format: in vivo, zebrafish; details: 24 hpf embryos, 6 hours; 3 μM PTBA, 25 μM PBA, 200 nM TSA
Description: It was next determined whether the HDACi function of PTBA was quantifiable in vivo. 24 hpf embryos were treated with 3 μM PTBA, 25 μM PBA, or 200 nM TSA for 6 hours. Protein extracts were prepared and immunoblotted with an anti-hyperacetylated histone H4 antibody. […] Furthermore, increasing the compound concentration caused a corresponding increase in hyperacetylation (FIG. 21).
SDS-PAGE and Western blotting were performed as described previously with some modifications (Noel, E. S. et al. Organ-specific requirements for Hdac1 in liver and pancreas formation. Dev Biol 322, 237-250, (2008)). Proteins were separated on 18% SDS-PAGE gels. Membranes were incubated at 4° C. overnight with 1:1000 anti-hyperacetylated histone H4 antibody (06-946, Millipore) or 1:1000 anti-α-tubulin antibody (Sigma-Aldrich) in PBT containing 5% nonfat milk.

renal progenitor cells = assay: In situ hybridization for lhx1a expression in 10-somite embryos (renal progenitor cell expansion); format: in vivo; for Lhx1a expansion caused by analog treatment, 3 μM: key: effective (+); partially effective (+/−); ineffective (−); Analogs that killed all embryos at a given concentration before reaching 10 somites are listed as XX; for Lhx1a expansion caused by analog treatment, 800 nM: key: effective (+); partially effective (+/−); ineffective (−); Analogs that killed all embryos at a given concentration before reaching 10 somites are listed as XX
Procedure, shortened: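 Zebrafish embryos treated with compound, then colorimetric whole-mount in situ hybridization (65° C) for lhx1a mRNA at 10 somites. Embryos with expanded kidney field counted manually as percent of total. EC50 taken as 50% point of percent-expansion trendline; compounds also classed effective, partial or ineffective versus PTBA at matched concentration.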

lhx1a, pax2a, pax8, ntla = assay: Relative qPCR in the trunk region of 10-somite embryos; format: in vivo, zebrafish; details: 3 μM
Description: Several of the genes analyzed by qPCR, including lhx1a and pax2a, show expression in anterior regions of the embryo as well as the IM. To focus more specifically on effects in the IM, cDNA samples taken from the trunks of treated and control embryos were examined. Samples for trunk RNA extraction were prepared by cutting embryos just above the first somite with microscissors and discarding the anterior portion. The trunk portions were homogenized with a plastic microcentrifuge pestle in 500 μL of TRI reagent (Ambion), and RNA was isolated using an RNeasy Micro Kit (QIAGEN) per the manufacturer's instructions. 1 μg RNA was heated to 75° C. for 5 min and then placed on ice. […]
Primer sets were designed using NetPrimer and Beacon Designer (ver. 7.51) primer analysis software (PREMIER Biosoft). […] Primer melting temperatures were maintained between 60° C. and 64° C. as determined by NetPrimer. […] The reference gene primer sets have been previously described (Tang, R., Dodd, A., Lai, D., McNabb, W. C. & Love, D. R. Validation of zebrafish (Danio rerio) reference genes for quantitative real-time RT-PCR normalization. Acta Biochim Biophys Sin (Shanghai) 39, 384-390, (2007)) with one modification. […]
Relative gene expression was calculated using iQ5 software (ver. 2.0, Bio-Rad) to determine normalized expression levels (ΔΔCt method). […]

O=C(O)CCCSc1ccccc1 [UPHD-00020, 4-(phenylthio)butanoic acid (PTBA)]
histone H4 hyperacetylation (histone H4): Histone H4 hyperacetylation was observed
Lhx1a expansion caused by analog treatment, 800 nM (renal progenitor cells; 800 nM from 2 hpf, 10-somite embryos): +/−
Lhx1a expansion caused by analog treatment, 1.5 μM (renal progenitor cells; 1.5 μM from 2 hpf, 10-somite embryos): +
Lhx1a expansion caused by analog treatment, 3 μM (renal progenitor cells; 3 μM from 2 hpf, 10-somite embryos): +
responders at 1.5 µM (renal progenitor cells; Danio rerio, 1.5 μM from 2 hpf, 10-somite embryos, read-out: lhx1a expansion, percent of treated embryos): 83%
responders at 3 µM (renal progenitor cells; Danio rerio, 3 μM PTBA added at 8 hpf after 0.5% DMSO at 5 hpf (HUA study), read-out: lhx1a expansion, percent of treated embryos): 97%
responders at 3 µM (renal progenitor cells; Danio rerio, 3 μM PTBA together with HUA (hydroxyurea and aphidicolin), read-out: lhx1a expansion, percent of treated embryos): 13%
responders at 3 µM (renal progenitor cells; Danio rerio, 3 μM from 2 hpf, 10-somite embryos, read-out: lhx1a expansion, percent of treated embryos): 95%
responders at 3 µM (renal progenitor cells; Danio rerio, embryos injected with 200 pg DN-RARα mRNA, 3 μM PTBA from 5 hpf, read-out: lhx1a expansion, percent of treated embryos): 19%
responders at 3 µM (renal progenitor cells; Danio rerio, mock-injected embryos, 3 μM PTBA from 5 hpf, read-out: lhx1a expansion, percent of treated embryos): 90%
responders at 0.2 µM (renal progenitor cells; Danio rerio, percent of embryos with expanded kidney field, 200 nM, read-out: Expansion of Cells (including repeats* and recounts**) 200 nM): 10%
responders at 0.4 µM (renal progenitor cells; Danio rerio, percent of embryos with expanded kidney field, 400 nM, read-out: Expansion of Cells (including repeats* and recounts**) 400 nM): 10%
responders at 3 µM (renal progenitor cells; Danio rerio, percent of embryos with expanded kidney field, 3 μM, read-out: Expansion of Cells (including repeats* and recounts**) 3 μM): 100%
EC50 (renal progenitor cells; Danio rerio, first pass EC50 from percent expansion (Excel trendline), average where several experiments): 1400 nM
increase in pax2a expression by qPCR (lhx1a, pax2a, pax8, ntla): almost two-fold increase
increase in relative lhx1a transcript by qPCR (lhx1a, pax2a, pax8, ntla): three-fold increase
